Patent US8809333B2, “Imidazole, pyrazole, and triazole derivatives useful as antibacterial agents” (Pfizer Inc., priority 2011, dated 2014)
pIC50: −log10 of the molar value. In brackets after ≈: the same amount, converted by molar mass. Like-named read-outs stand apart in the source and are kept apart here.

Tests used:
[1] = tested on: Klebsiella pneumoniae: Ciprofloxacin-resistant isolate, expresses ESBL, clinical isolate (KP-3700); experiment: MIC determination (CLSI), KP-3700; format: cell-based; conditions: overnight incubation, lower of duplicate values
Protocol: (§1) The in vitro antibacterial activity of compounds described in the Examples was evaluated by minimum inhibitory concentration (MIC) testing according to Clinical and Laboratory Standards Institute (CLSI) Guidelines. See: Clinical and Laboratory Standards Institute. Methods for Dilution Antimicrobial Susceptibility Tests for Bacteria that Grow Aerobically; Approved Standard-Eighth Edition. CLSI document M7-A8 [ISBN 1-56238-689-1]. Clinical and Laboratory Standards Institute, 940 West Valley Road, Suite 1400, Wayne, Pa. 19087-1898 USA, 2006; also Clinical and Laboratory Standards Institute. Performance Standards for Antimicrobial Susceptibility Testing; Twentieth Informational Supplement. CLSI document M100-S20 [ISBN1-56238-716-2]. Clinical and Laboratory Standards Institute.
(§2) The MIC determination is a standard laboratory method for evaluating the antibacterial activity of a compound. The MIC represents the lowest drug concentration that inhibits visible growth of bacteria following overnight incubation. […] Typically, the drug concentration range is broken down into 2-fold increments (e.g. 0.06 μg/mL, 0.12 μg/mL. 0.25 μg/mL, 0.50 μg/mL, 1.0 μg/mL, etc.) and the various drug concentrations are all individually incubated overnight with approximately the same number of bacteria. The MIC is then determined by visually inspecting the drug effect at each concentration, and identifying the lowest drug concentration that has inhibited bacterial growth as compared to the drug free control. Typically, bacteria continue to grow at drug concentrations lower than the MIC and don't grow at concentrations at and above the MIC.
(§3) The MIC values described in Tables 2 and 3 below were derived from assays wherein each test compound was evaluated in duplicate. In cases where the duplicate values varied by 0-2-fold, the lower of the two values was reported below. Generally speaking, if the duplicate values varied by more than 2-fold, the assay was considered non-valid and was repeated until the variation between duplicate runs was ≦2-fold. In line with the CLSI guidelines referred to above, both control organisms and reference compounds were utilized in each MIC assay to provide proper quality control. MIC values generated with these control organisms and reference compounds were required to fall within a defined range for the assay to be considered valid and be included herein. Those skilled in the art will recognize that MIC values can and do vary from experiment to experiment. Generally speaking, it should be recognized that MIC values often vary +/−2-fold from experiment to experiment. While a single MIC is reported for each compound and each microorganism, the reader should not conclude that each compound was only tested once. Several of the compounds were subjected to multiple tests. The data reported in Tables 2 and 3 is reflective of the compounds relative activity and different MICs may have been generated on these occasions in line with the guidelines described above.
(§4) The following bacterial strains were used in these MIC determinations:
(3) Klebsiella pneumoniae: Ciprofloxacin-resistant isolate, expresses extended-spectrum beta-lactamases (ESBL), clinical isolate, labeled as KP-3700 in Table 5.

[2] = tested on: Pseudomonas aeruginosa UI-18: Wild-type (PA-7); experiment: MIC determination (CLSI), PA-7; format: cell-based; conditions: Pseudomonas aeruginosa UI-18 wild-type; overnight incubation; lower of duplicate values; read-out: PA-7 (MIC)
Protocol: as §1, §2, §3, §4
(4) Pseudomonas aeruginosa UI-18: Wild-type, labeled as PA-7 in Table 5;

[3] = target: T1, Pseudomonas aeruginosa LpxC enzyme (Pseudomonas aeruginosa, UniProt P47205); experiment: IC50 assay, LpxC enzyme from P. aeruginosa (BioTrove RapidFire mass spectrometry); format: biochemical
T1 construct: made in house; host or cells: E. coli
T1 sequence (P47205 1-303): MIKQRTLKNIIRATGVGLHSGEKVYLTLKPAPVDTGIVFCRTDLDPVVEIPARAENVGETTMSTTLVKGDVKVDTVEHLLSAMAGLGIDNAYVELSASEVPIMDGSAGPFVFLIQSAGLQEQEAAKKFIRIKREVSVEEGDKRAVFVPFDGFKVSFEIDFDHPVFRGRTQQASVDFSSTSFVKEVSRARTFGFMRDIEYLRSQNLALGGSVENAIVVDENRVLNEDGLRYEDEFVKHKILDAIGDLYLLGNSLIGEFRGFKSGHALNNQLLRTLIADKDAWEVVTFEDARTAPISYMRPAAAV
Protocol: In order to assess the compounds biological activity, selected in-vitro assays were conducted on selected compounds of Formula I. One of the assays measured the compounds ability to disrupt the synthesis of lipopolysaccharide, LPS, which is a component of the outer membrane of Gram-negative bacteria. Disruption of this synthesis is lethal to the bacteria. The assay determined the compound's ability to inhibit LpxC, which is the first enzyme in the biosynthetic pathway for LPS (measured as IC50). Additionally, MICs (minimal inhibitory concentrations) were determined for several bacteria. The specific protocols are described below:
A) IC50 Assay, LpxC Enzyme from P. Aeruginosa Labeled as PA LpxC Enzyme IC50):
At the end of 1 hour, 5 ul of 1 N HCl was added to stop the enzyme reaction, the plates were centrifuged, and then processed with the BioTrove Rapidfire HTMS Mass Spectrometry System. A no-enzyme control was used in calculating the IC50 values from the percent conversion values.

[4] = tested on: Escherichia coli EC-1: VOGEL, mouse virulent; experiment: MIC determination (CLSI), EC-1; format: cell-based; conditions: Escherichia coli, read-out: EC-1 (MIC)
Protocol: as §1, §2, §3, §4
(2) Escherichia coli EC-1: VOGEL, mouse virulent labeled as EC-1 in Table 5;

[5] = tested on: Acinetobacter baumannii/haemolyticus: Multidrug-resistant clinical isolate (AB-3167); experiment: MIC determination (CLSI), AB-3167; format: cell-based; conditions: Acinetobacter baumannii/haemolyticus multidrug-resistant clinical isolate; overnight incubation; lower of duplicate values; read-out: AB-3167 (MIC)
Protocol: as §1, §2, §3, §4
(1) Acinetobacter baumannii/haemolyticus: Multidrug-resistant clinical isolate labeled as AB-3167 in Table 5;

[6] = P. aeruginosa LpxC enzyme 0.1 nM, 25° C., 1 hour, pH 8.0, read-out: PA: IC50

SMILES	KP-3700 (MIC) [1]	MIC [2]	pIC50 [3, 6]	MIC [4]	MIC [5]	pIC50 [3]
CC(C)(C)c1cccc(OCc2cn(CCC(C)(C(=O)NO)S(C)(=O)=O)nn2)c1 (stereo not shown) [Example 35, 4-{4-[(3-t-butylphenoxy)methyl]-1H-1,2,3-triazol-1-yl}-N-hydroxy-2-methyl-2-(methylsulfonyl)butanamide]	>64.0 µg/mL	> 64 µg/mL	7.62	> 64 µg/mL	> 64 µg/mL	
CSc1cccc(OCc2cn(CCC(C)(C(=O)NO)S(C)(=O)=O)nn2)c1 (stereo not shown) [Example 36, N-hydroxy-2-methyl-4-(4-{[3-(methylsulfanyl)phenoxy]methyl}-1H-1,2,3-triazol-1-yl)-2-(methylsulfonyl)butanamide]	>64.0 µg/mL	32 µg/mL (≈ 77.2 µM)	8.19	> 64 µg/mL	> 64 µg/mL	
Cc1ccc(-c2cn(CCC(C)(C(=O)NO)S(C)(=O)=O)nn2)cc1 (stereo not shown) [Example 37, N-hydroxy-2-methyl-4-[4-(4-methylphenyl)-1H-1,2,3-triazol-1-yl]-2-(methylsulfonyl)butanamide]	64 µg/mL	4 µg/mL (≈ 11.4 µM)		16 µg/mL (≈ 45.4 µM)	> 64 µg/mL	8.86
CC(CCn1cc(-c2ccccc2Br)nn1)(C(=O)NO)S(C)(=O)=O (stereo not shown) [Example 38, 4-[4-(2-bromophenyl)-1H-1,2,3-triazol-1-yl]-N-hydroxy-2-methyl-2-(methylsulfonyl)butanamide]	>64.0 µg/mL	32 µg/mL (≈ 76.7 µM)	7.72	16 µg/mL (≈ 38.3 µM)	> 64 µg/mL	
Cc1ccc(C)c(OCc2cn(CCC(C)(C(=O)NO)S(C)(=O)=O)nn2)c1 (stereo not shown) [Example 39, 4-{4-[(2,5-dimethylphenoxy)methyl]-1H-1,2,3-triazol-1-yl}-N-hydroxy-2-methyl-2-(methylsulfonyl)butanamide]	>64.0 µg/mL	> 64 µg/mL	7.29	> 64 µg/mL	> 64 µg/mL	
CC(CCn1cc(-c2ccccc2)cn1)(C(=O)NO)S(C)(=O)=O (stereo not shown) [Example 40, N-hydroxy-2-methyl-2-(methylsulfonyl)-4-(4-phenyl-1H-pyrazol-1-yl)butanamide]	>64.0 µg/mL	2 µg/mL (≈ 5.93 µM)		32 µg/mL (≈ 94.8 µM)	> 64 µg/mL	8.33
Cc1ccc(-c2cnn(CCC(C)(C(=O)NO)S(C)(=O)=O)c2)cc1 (stereo not shown) [Example 41, N-hydroxy-2-methyl-4-[4-(4-methylphenyl)-1H-pyrazol-1-yl]-2-(methylsulfonyl)butanamide]	64 µg/mL	2 µg/mL (≈ 5.69 µM)	8.90	8 µg/mL (≈ 22.8 µM)	> 64 µg/mL	
Cc1cccc(-c2cnn(CCC(C)(C(=O)NO)S(C)(=O)=O)c2)c1 (stereo not shown) [Example 42, N-hydroxy-2-methyl-4-[4-(3-methylphenyl)-1H-pyrazol-1-yl]-2-(methylsulfonyl)butanamide]	>64.0 µg/mL	4 µg/mL (≈ 11.4 µM)	8.21	64 µg/mL (≈ 182 µM)	> 64 µg/mL	
Cc1ccccc1-c1cnn(CCC(C)(C(=O)NO)S(C)(=O)=O)c1 (stereo not shown) [Example 43, N-hydroxy-2-methyl-4-[4-(2-methylphenyl)-1H-pyrazol-1-yl]-2-(methylsulfonyl)butanamide]	>64.0 µg/mL	16 µg/mL (≈ 45.5 µM)	7.95	32 µg/mL (≈ 91.1 µM)	> 64 µg/mL	
CC(CCn1cc(-c2cccc(O)c2)cn1)(C(=O)NO)S(C)(=O)=O (stereo not shown) [Example 44, N-hydroxy-4-[4-(3-hydroxyphenyl)-1H-pyrazol-1-yl]-2-methyl-2-(methylsulfonyl)butanamide]	>64.0 µg/mL	> 64 µg/mL	7.68	> 64 µg/mL	> 64 µg/mL	
CC(CCn1cc(-c2ccccc2F)cn1)(C(=O)NO)S(C)(=O)=O (stereo not shown) [Example 45, 4-[4-(2-fluorophenyl)-1H-pyrazol-1-yl]-N-hydroxy-2-methyl-2-(methylsulfonyl)butanamide]	64 µg/mL	2 µg/mL (≈ 5.63 µM)	8.60	16 µg/mL (≈ 45 µM)	> 64 µg/mL	
CC(CCn1cc(-c2ccccc2C#N)cn1)(C(=O)NO)S(C)(=O)=O (stereo not shown) [Example 46, 4-[4-(2-cyanophenyl)-1H-pyrazol-1-yl]-N-hydroxy-2-methyl-2-(methylsulfonyl)butanamide]	>64.0 µg/mL	32 µg/mL (≈ 88.3 µM)	7.14	4 µg/mL (≈ 11 µM)	> 64 µg/mL	
CC(CCn1cc(-c2ccc(C#N)cc2)cn1)(C(=O)NO)S(C)(=O)=O (stereo not shown) [Example 47, 4-[4-(4-cyanophenyl)-1H-pyrazol-1-yl]-N-hydroxy-2-methyl-2-(methylsulfonyl)butanamide]	>64.0 µg/mL	4 µg/mL (≈ 11 µM)	8.94	64 µg/mL (≈ 177 µM)	> 64 µg/mL	
CC(CCn1cc(-c2cccc(C#N)c2)cn1)(C(=O)NO)S(C)(=O)=O (stereo not shown) [Example 48, 4-[4-(3-cyanophenyl)-1H-pyrazol-1-yl]-N-hydroxy-2-methyl-2-(methylsulfonyl)butanamide]	>64.0 µg/mL	64 µg/mL (≈ 177 µM)	7.53	> 64 µg/mL	> 64 µg/mL	
Cc1cc(O)ccc1-c1cnn(CCC(C)(C(=O)NO)S(C)(=O)=O)c1 (stereo not shown) [Example 49, N-hydroxy-4-[4-(4-hydroxy-2-methylphenyl)-1H-pyrazol-1-yl]-2-methyl-2-(methylsulfonyl)butanamide]	>64.0 µg/mL	> 64 µg/mL	7.04	> 64 µg/mL	> 64 µg/mL	
Cc1cc(-c2cnn(CCC(C)(C(=O)NO)S(C)(=O)=O)c2)ccc1O (stereo not shown) [Example 50, N-hydroxy-4-[4-(4-hydroxy-3-methylphenyl)-1H-pyrazol-1-yl]-2-methyl-2-(methylsulfonyl)butanamide]	>64.0 µg/mL	> 64 µg/mL	7.35	> 64 µg/mL	> 64 µg/mL	
COc1cccc(-c2cnn(CCC(C)(C(=O)NO)S(C)(=O)=O)c2)c1 (stereo not shown) [Example 51, N-hydroxy-4-[4-(3-methoxyphenyl)-1H-pyrazol-1-yl]-2-methyl-2-(methylsulfonyl)butanamide]	>64.0 µg/mL	16 µg/mL (≈ 43.5 µM)	8.14	> 64 µg/mL	> 64 µg/mL	
